From the NIST ThermoML archive (doi:10.1021/je050020m)
± gives the expanded uncertainty stated by the source.

Assay: xn = mol fraction of the nth substance listed
Conditions: Liquid, Vibrating tube method

CCCCCCCCCC [decane] + O=C=O
Conditions	mass density [kg/m3]
313.1 K, 2005 kPa, x2 = 0.0551	717.94 ± 0.55
313.1 K, 3035 kPa, x2 = 0.0551	718.98 ± 0.55
313.1 K, 4061 kPa, x2 = 0.0551	719.88 ± 0.56
313.1 K, 5020 kPa, x2 = 0.2369	728.09 ± 0.52
313.1 K, 5063 kPa, x2 = 0.0551	720.72 ± 0.56
313.1 K, 6029 kPa, x2 = 0.0551	721.55 ± 0.56
313.1 K, 6029 kPa, x2 = 0.2369	729.09 ± 0.52
313.1 K, 7015 kPa, x2 = 0.2369	730.07 ± 0.53
313.1 K, 7028 kPa, x2 = 0.0551	722.42 ± 0.57
313.1 K, 7998 kPa, x2 = 0.0551	723.25 ± 0.57
313.1 K, 8019 kPa, x2 = 0.2369	731.05 ± 0.53
313.1 K, 9012 kPa, x2 = 0.2369	732.01 ± 0.53
313.1 K, 9019 kPa, x2 = 0.0551	724.09 ± 0.57
313.1 K, 10010 kPa, x2 = 0.0551	724.92 ± 0.58
313.1 K, 10012 kPa, x2 = 0.2369	732.96 ± 0.54
313.1 K, 11018 kPa, x2 = 0.2369	733.88 ± 0.54
313.1 K, 11032 kPa, x2 = 0.0551	725.72 ± 0.58
313.1 K, 12009 kPa, x2 = 0.2369	734.8 ± 0.55
313.1 K, 12046 kPa, x2 = 0.0551	726.55 ± 0.58
313.1 K, 13016 kPa, x2 = 0.2369	735.72 ± 0.55
313.1 K, 13029 kPa, x2 = 0.0551	727.32 ± 0.59
313.1 K, 14011 kPa, x2 = 0.0551	728.1 ± 0.59
313.1 K, 14019 kPa, x2 = 0.2369	736.6 ± 0.55
313.1 K, 15006 kPa, x2 = 0.2369	737.46 ± 0.56
313.1 K, 15013 kPa, x2 = 0.0551	728.84 ± 0.6
313.1 K, 15992 kPa, x2 = 0.0551	729.58 ± 0.6
313.1 K, 16017 kPa, x2 = 0.2369	738.34 ± 0.56
313.1 K, 16999 kPa, x2 = 0.0551	730.32 ± 0.6
313.1 K, 17006 kPa, x2 = 0.2369	739.17 ± 0.57
313.1 K, 18008 kPa, x2 = 0.2369	740.01 ± 0.57
313.1 K, 18044 kPa, x2 = 0.0551	731.13 ± 0.61
313.1 K, 19016 kPa, x2 = 0.2369	740.85 ± 0.58
313.1 K, 19030 kPa, x2 = 0.0551	731.85 ± 0.61
313.1 K, 19999 kPa, x2 = 0.0551	732.57 ± 0.62
313.1 K, 20000 kPa, x2 = 0.2369	741.67 ± 0.58
313.1 K, 21019 kPa, x2 = 0.2369	742.51 ± 0.58
313.1 K, 21031 kPa, x2 = 0.0551	733.3 ± 0.62
313.1 K, 22002 kPa, x2 = 0.2369	743.29 ± 0.59
313.1 K, 22015 kPa, x2 = 0.0551	734 ± 0.63
313.1 K, 23007 kPa, x2 = 0.2369	744.12 ± 0.59
313.1 K, 23023 kPa, x2 = 0.0551	734.74 ± 0.63
313.1 K, 24008 kPa, x2 = 0.2369	744.96 ± 0.6
313.1 K, 24060 kPa, x2 = 0.0551	735.5 ± 0.64
313.1 K, 25013 kPa, x2 = 0.2369	745.78 ± 0.6
313.1 K, 25026 kPa, x2 = 0.0551	736.2 ± 0.64
313.11 K, 7015 kPa, x2 = 0.4536	742.3 ± 0.49
313.11 K, 8024 kPa, x2 = 0.4536	743.57 ± 0.49
313.11 K, 9021 kPa, x2 = 0.4536	744.82 ± 0.5
313.11 K, 10024 kPa, x2 = 0.4536	746.02 ± 0.5
313.11 K, 11020 kPa, x2 = 0.4536	747.22 ± 0.51
313.11 K, 11029 kPa, x2 = 0.9663	714.21 ± 1
313.11 K, 12022 kPa, x2 = 0.4536	748.39 ± 0.51
313.11 K, 12037 kPa, x2 = 0.9663	738.68 ± 0.84
313.11 K, 13012 kPa, x2 = 0.4536	749.55 ± 0.51
313.11 K, 13049 kPa, x2 = 0.9663	758.54 ± 0.75
313.11 K, 14017 kPa, x2 = 0.4536	750.69 ± 0.52
313.11 K, 14020 kPa, x2 = 0.9663	774.43 ± 0.69
313.11 K, 15013 kPa, x2 = 0.9663	788.48 ± 0.65
313.11 K, 15020 kPa, x2 = 0.4536	751.81 ± 0.52
313.11 K, 16007 kPa, x2 = 0.9663	800.98 ± 0.62
313.11 K, 16020 kPa, x2 = 0.4536	752.93 ± 0.52
313.11 K, 17013 kPa, x2 = 0.4536	753.99 ± 0.53
313.11 K, 17027 kPa, x2 = 0.9663	812.43 ± 0.59
313.11 K, 17984 kPa, x2 = 0.9663	822.21 ± 0.58
313.11 K, 18019 kPa, x2 = 0.4536	755.06 ± 0.53
313.11 K, 19014 kPa, x2 = 0.4536	756.08 ± 0.54
313.11 K, 19037 kPa, x2 = 0.9663	832.11 ± 0.56
